Reference: patent US20260184710A1, “CASITAS B-LINEAGE LYMPHOMA PROTOONCOGENE B (CBL-B) DEGRADING COMPOUNDS AND ASSOCIATED METHODS OF USE” (Arvinas Operations, Inc., priority 2022, published 2026)

Experiments:
Cbl-b [1] = target: T1, Cbl-b (Homo sapiens, UniProt Q13191); test: Cbl-b Degradation Method A (FACS, anti-Cbl-b antibody staining); format: cell-based; details: for DC50: half maximal degradation, read-out: Cbl-b Degredation Method A IC50; for Dmax: Jurkat, read-out: Cbl-b Degredation Method A Dmax (%)
T1 construct: Cbl-b-HiBit KI Jurkat Cells were purchased from Promega; host or cells: Cbl-b-HiBiT knock-in Jurkat cells
Summary of the method: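 Cbl-b-HiBit KI Jurkat cells treated with compound for at least 20 h at 37 °C, then fixed, permeabilized and stained with anti-Cbl-b antibody plus anti-rabbit AF488 secondary. Cbl-b levels read by FACS; DC50 and Dmax (percent of control) derived.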

Cbl-b [2] = target: T1, Cbl-b; test: Cbl-b Degradation Method B (Nano-Glo HiBiT lytic detection); format: cell-based; details: Cbl-b-HiBit KI Jurkat Cells, incubated at least 6-24 hours; for DC50: half maximal degradation, read-out: Cbl-b Degredation Method B IC50; for Dmax: read-out: Cbl-b Degredation Method B Dmax (%)
Summary of the method: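 Cbl-b-HiBiT knock-in Jurkat cells (20,000/well) were treated after ~24 h plating with an 11-point 1:3 series for 6-24 h at 37° C. Remaining Cbl-b measured by Nano-Glo HiBiT lytic luminescence. DC50 and Dmax expressed as % of control.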

[3] = Cbl-b-HiBit KI Jurkat Cells, incubated at least 20 hours
[4] = Cbl-b-HiBit KI Jurkat Cells, incubated at least 20 hours, maximum degradation observed

T1 sequence (Q13191 whole entry): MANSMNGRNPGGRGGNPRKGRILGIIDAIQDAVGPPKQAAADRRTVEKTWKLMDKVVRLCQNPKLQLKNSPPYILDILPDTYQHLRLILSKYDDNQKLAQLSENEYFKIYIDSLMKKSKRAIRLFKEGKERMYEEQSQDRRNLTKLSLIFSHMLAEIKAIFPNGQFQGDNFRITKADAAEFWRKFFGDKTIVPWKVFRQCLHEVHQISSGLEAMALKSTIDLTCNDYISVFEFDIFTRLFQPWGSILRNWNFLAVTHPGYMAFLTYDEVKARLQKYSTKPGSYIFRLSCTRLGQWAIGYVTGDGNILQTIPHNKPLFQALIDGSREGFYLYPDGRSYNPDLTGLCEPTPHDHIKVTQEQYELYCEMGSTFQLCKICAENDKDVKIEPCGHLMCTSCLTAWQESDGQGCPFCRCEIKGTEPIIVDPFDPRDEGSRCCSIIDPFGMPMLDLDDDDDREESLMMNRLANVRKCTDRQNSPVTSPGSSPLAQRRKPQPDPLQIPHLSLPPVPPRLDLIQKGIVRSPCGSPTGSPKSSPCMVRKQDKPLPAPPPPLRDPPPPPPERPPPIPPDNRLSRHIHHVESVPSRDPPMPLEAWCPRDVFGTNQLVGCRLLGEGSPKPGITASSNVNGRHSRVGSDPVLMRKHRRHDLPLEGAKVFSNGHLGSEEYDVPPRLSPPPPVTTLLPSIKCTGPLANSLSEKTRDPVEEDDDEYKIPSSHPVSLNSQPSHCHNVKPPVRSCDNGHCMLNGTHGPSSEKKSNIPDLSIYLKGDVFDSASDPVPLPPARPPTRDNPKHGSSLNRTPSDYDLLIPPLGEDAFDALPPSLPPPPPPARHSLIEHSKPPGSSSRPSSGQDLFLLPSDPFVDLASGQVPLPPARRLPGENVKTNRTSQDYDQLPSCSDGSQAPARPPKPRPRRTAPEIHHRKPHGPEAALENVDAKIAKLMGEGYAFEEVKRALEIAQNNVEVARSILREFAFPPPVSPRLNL

| DC50 (Cbl-b [1]; [3]) | Dmax (Cbl-b [1]; [4]) | DC50 (Cbl-b [2]) | Dmax (Cbl-b [2]; maximum degradation observed) | Compound | Dmax (Cbl-b [1]) | Cbl-b Degredation Method B Dmax (%) (Cbl-b [2]; maximum degradation observed) |
| --- | --- | --- | --- | --- | --- | --- |
| 5 to 50 nM | > 70% | < 5 nM | 35 to 70% | CC1c2nc(N3CCC(O[C@H]4CC[C@H](CN5CCC6(CC5)CN(c5cc7c(c(C(F)(F)F)c5)CN(c5cccc([C@]8(Cc9nncn9C)C[C@@H](C#N)C8)c5)C7=O)C6)CC4)CC3)ccc2C(=O)N1C1CCC(=O)NC1=O (some centres unmarked) [Example 175, (1r,3r)-3-[(4-methyl-4H-1,2,4-triazol-3-yl)methyl]-3-{3-[1-oxo-6-(7-{[(1r,4r)-4-({1-[6-(2,6-dioxopiperidin-3-yl)-7-methyl-5-oxo-5H,6H,7H-pyrrolo[3,4-b]pyridin-2-yl]piperidin-4-yl}oxy)cyclohexyl]methyl}-2,7-diazaspiro[3.5]nonan-2-yl)-4-(trifluoromethyl)-2,3-dihydro-1H-isoindol-2-yl]phenyl}cyclobutane-1-carbonitrile] |  |  |
| < 5 nM | > 70% | < 5 nM | 35 to 70% | Cn1cnnc1C[C@]1(c2cccc(N3Cc4c(cc(CN5CCN(C[C@H]6CC[C@H](OC7CCN(c8ccc9c(c8)n(C)c(=O)n9C8CCC(=O)NC8=O)CC7)CC6)CC5)cc4C(F)(F)F)C3=O)c2)C[C@H](C#N)C1 (some centres unmarked) [Example 215, (1r,3r)-3-[(4-methyl-4H-1,2,4-triazol-3-yl)methyl]-3-(3-{1-oxo-6-[(4-{[(1r,4r)-4-({1-[1-(2,6-dioxopiperidin-3-yl)-3-methyl-2-oxo-2,3-dihydro-1H-1,3-benzodiazol-5-yl]piperidin-4-yl}oxy)cyclohexyl]methyl}piperazin-1-yl)methyl]-4-(trifluoromethyl)-2,3-dihydro-1H-isoindol-2-yl}phenyl)cyclobutane-1-carbonitrile] |  |  |
| < 5 nM | > 70% | < 5 nM | 35 to 70% | Cn1cnnc1C(c1cccc(N2Cc3c(cc(CN4CCC[C@H](CN5CCN(C[C@H]6CC[C@@H](OC7CCN(c8ccc9c(c8F)CN(C8CCC(=O)NC8=O)C9=O)CC7)CC6)CC5)C4)cc3C(F)(F)F)C2=O)c1)C1CCC1 (stereo partly drawn) [Example 158, 3-[4-fluoro-1-oxo-5-(4-{[(1r,4r)-4-[(4-{[(3S)-1-[(2-{3-[cyclobutyl(4-methyl-4H-1,2,4-triazol-3-yl)methyl]phenyl}-3-oxo-7-(trifluoromethyl)-2,3-dihydro-1H-isoindol-5-yl)methyl]piperidin-3-yl]methyl}piperazin-1-yl)methyl]cyclohexyl]oxy}piperidin-1-yl)-2,3-dihydro-1H-isoindol-2-yl]piperidine-2,6-dione] |  |  |
| < 5 nM | > 70% | < 5 nM | 35 to 70% | Cn1cnnc1[C@]1(c2cccc(N3Cc4c(cc(CN5CCC[C@H](CN6CCN(C[C@H]7CC[C@@H](OC8CCN(c9ccc%10c(c9F)CN(C9CCC(=O)NC9=O)C%10=O)CC8)CC7)CC6)C5)cc4C(F)(F)F)C3=O)c2)C[C@@H](C)C1 (stereo partly drawn) [Example 157, 3-[4-fluoro-1-oxo-5-(4-{[(1r,4r)-4-[(4-{[(3S)-1-[(3-oxo-2-{3-[(1r,3s)-3-methyl-1-(4-methyl-4H-1,2,4-triazol-3-yl)cyclobutyl]phenyl}-7-(trifluoromethyl)-2,3-dihydro-1H-isoindol-5-yl)methyl]piperidin-3-yl]methyl}piperazin-1-yl)methyl]cyclohexyl]oxy}piperidin-1-yl)-2,3-dihydro-1H-isoindol-2-yl]piperidine-2,6-dione] |  |  |

| Compound | DC50 (Cbl-b [1]; [3]) | Dmax (Cbl-b [1]; [4]) | DC50 (Cbl-b [2]) | Dmax (Cbl-b [2]; maximum degradation observed) | Dmax (Cbl-b [1]) | Cbl-b Degredation Method B Dmax (%) (Cbl-b [2]; maximum degradation observed) |
| --- | --- | --- | --- | --- | --- | --- |
| CC1c2nc(N3CCC(CN4CCN(CC5CCN(Cc6cc7c(c(C(F)(F)F)c6)CN(c6cccc([C@]8(Cc9nncn9C)C[C@@H](C#N)C8)c6)C7=O)C(C)(C)C5)CC4)CC3)ccc2C(=O)N1C1CCC(=O)NC1=O (some centres unmarked) [Example 277, (1r, 3r)-3-(3-{6-[(4-{[4-({1-[6-(2,6-dioxopiperidin-3-yl)-7-methyl-5-oxo-5H, 6H, 7H-pyrrolo [3,4-b]pyridin-2-yl]piperidin-4-yl}methyl)piperazin-1-yl]methyl}-2,2-dimethylpiperidin-1-yl)methyl]-1-oxo-4-(trifluoromethyl)-2,3-dihydro-1H-isoindol-2-yl}phenyl)-3-[(4-methyl-4H-1,2,4-triazol-3-yl)methyl]cyclobutane-1-carbonitrile] | 5 to 50 nM |  | < 5 nM |  | < 35% | C (C ≤ 35) |
